# Results published in patent publication US20170166979A1, “PERSONALIZED TREATMENT OF CANCER USING FGFR INHIBITORS” (priority 2014, published 2017).
# “Also recorded” adds a separate entry of the source.
# Key:
# [1] = system: FGFR-dependent cancer cell lines (H1581, DMS114, and HCC1599); test: FGFR dependency of cancer cell lines (cellular ATP content after 96 hours); format: cell-based; conditions: FGFR-dependent group: H1581, DMS114, HCC1599
# Experimental: (§1) FIG. 7. Protein expression of MYC was silenced by stable lentiviral transduction of FGFR dependent H1581 cells as well as HCC15, H2882, and HCC95 controls. Knockdown efficiency was validated by immunoblotting for H1581, H2882, and HCC15 cells (top). FGFR dependency was determined by measuring cellular ATP content after 96 hours (bottom).
# (§2) FIG. 9. Segregation of FGFR1 amplification with RNA expression levels of MYC Cancer cell lines were divided into an FGFR-dependent (H1581, DMS114, and HCC1599) GI 50<500 nmol/L, PD173074) versus resistant group (A427, H520, H1703, HCC15, H358, HCC95, H187, SW1271, H526, and DMS153 cells). Expression levels were compared by the Student t test. wt, wild-type.
# [2] = system: resistant group (A427, H520, H1703, HCC15, H358, HCC95, H187, SW1271, H526, and DMS153 cells); test: as above; format: cell-based
# Experimental: as §1, §2
# [3] = system: FGFR1-MYC cotransduced NIH3T3 cells; test: Induction of apoptosis (Annexin-V/PI, flow cytometry); format: cell-based; conditions: 1 μmol/L, 72-hour FGFR inhibition
# Text: (§3) FIG. 3. Induction of apoptosis (Annexin-V/PI, flow cytometry) in NIH3T3 cells, (co-) transduced with FGFR1β+/−MYC, by 72-hour FGFR inhibition (PD173074, 1 μmol/L). FGFR-dependent H1581 cells (PD173074, 1 μmol/L) as well as ALK-dependent NIH3T3-EML4-ALK
# (§4) cells (TAE684, 1 μmol/L) were used as positive controls.
# [4] = system: NIH3T3 cells expressing FGFR1 alone; test: as above; format: cell-based; conditions: 1 μmol/L, 72-hour FGFR inhibition
# Text: as §3, §4
# [5] = system: FGFR-dependent H1581 cells; test: as above; format: cell-based; conditions: 1 μmol/L, 72-hour
# Text: as §3
# cells (TAE684, 1 μmol/L) were used as positive controls. Resistant HCC15 and NIH3T3-e.V. cells served as negative controls. *, Significant induction of apoptosis.
# [6] = system: FGFR-dependent cell lines H1581 and DMS114; test: Immunoblotting of MYC and cyclin D1 expression upon FGFR inhibition; format: cell-based; conditions: 1 μmol/L, within 24 hours
# Experimental: (§5) FIG. 6. FGFR1-amplified H1581, DMS114, and HCC95 cells as well as HCC15 (NRAS mut) controls were treated with PD173074 (1 μmol/L, 24 hours). Expression levels of MYC, cyclin D1, and actin as well as ERK phosphorylation were monitored by immunoblotting. Con.: positive control NIH3T3-FGFR1β cells.
# [7] = system: FGFR1-amplified HCC95 and H520 cells and NRAS-mutant HCC15 cells; test: as above; format: cell-based; conditions: 1 μmol/L, 24 hours
# Experimental: as §5
# [8] = system: FGFR-dependent cell lines; test: Mitochondrial apoptosis mediators upon FGFR inhibition; format: cell-based; conditions: 1 μmol/L, after 72 hours
# [9] = system: NIH3T3 cells expressing either of the mesenchymal FGFR1 splice variants; test: Xenograft mouse model, tumor volume; format: in vivo, nude mice; conditions: 15 mg/kg, q.d.
# Experimental: (§6) FIG. 4. Nude mice, engrafted with retrovirally transduced NIH3T3 cells, received BGJ398 (15 mg/kg, q.d., lower curve) or 5% glucose (upper curve), respectively, upon formation of palpable tumors. Volumes of tumors formed by NIH3T3-FGFR1f3 cells (top) and NIH3T3-FGFR1β-MYC cells (bottom) were assessed every second day and compared by the t test. Error bars display SD of three independent experiments.
# (§7) All animal procedures were approved by the local animal protection committee and the local authorities. Transduced NIH3T3 and tumor cells were resuspended in RPMI or DMEM medium and injected (5×10^6 cells per tumor) subcutaneously into the flanks of 8- to 15-week-old male nude mice [Rj:NMRI-nu (nu/nu), Janvier Europe] under 2.5% isoflurane anesthesia.
# (§8) To assess the effect of FGFR1 inhibitors in vivo, NVP-BGJ 398 (Novartis) was dissolved in a vehicle solution (33% PEG300, 5% glucose) for xenograft application. Tumor size was monitored every second day by measurement of perpendicular diameters by an external caliper and calculated by use of the modified ellipsoid formula [V=½ (Length×Width 2)]. Oral therapy was started when tumors reached a volume of 100 mm 3. Mice received daily either
# (§9) BGJ398 (15 mg/kg) or vehicle solution. After 14 (NIH3T3 FGFR1(3 +MYC), 16 (NIH3T3 EML4-ALK, KRAS G12V), or 25 (NIH3T3 e.V., FGFR1α/β) days of therapy, respectively, mice were sacrificed by intraperitoneal injection of ketamine/xylazine (300/60 mg/kg).
# [10] = system: NIH3T3-FGFR1β-MYC cells; test: Xenograft mouse model, tumor volume; format: in vivo, nude mice; conditions: 15 mg/kg, q.d., tumors coexpressing FGFR1 and MYC; P<0.001
# Experimental: as §6, §7, §8, §9
# [11] = system: stage IV squamous cell lung cancer with FGFR1 amplification and MYC score of 3; test: Patient treated with BGJ398 in first-in-humans trial (CT, RECIST 1.1); format: in vivo, human; conditions: 100 mg
# Text: FIG. 11. […] The sample was scored (degrees 0-3) by FGFR1 dual-color FISH (top, normalized copy-number ratio) as well as MYC IHC (bottom, nuclear staining intensity).
# FIG. 13. Fused scans of positron emission tomography (PET) and computer tomography (CT) before (top left, baseline) and after the beginning of BGJ389 therapy (top right, 4 weeks). […] Target lesions for evaluation of tumor response are highlighted by red arrows. IHC, immunohistochemistry.
# We identified a person with a 70-packper-year smoking history. […] The patient agreed to treatment with BGJ398, a highly specific FGFR1 inhibitor, which was being evaluated in a first-in-humans trial at our center. After cardiac assessment and baseline thoracic computed tomography (CT), treatment with 100 mg BGJ398 was started.
SMILES,GI50 [1],FGFR dependency group [2],Induction of apoptosis [3],Induction of apoptosis [4],Induction of apoptosis [5],Levels of MYC [6],Levels of cyclin D1 [6],"Expression levels (MYC, cyclin D1) [7]",Cytochrome C release [8],Loss of the mitochondrial membrane potential [8],"Tumor growth ([9]; oral, nude mice)",Tumor shrinkage ([9]; tumors expressing FGFR1 alone),Tumor regression [10],"Duration of therapy until progressive disease (kidney, RECIST1.1) [11]",Symptoms [11],Response according to RECIST 1.1 criteria ([11]; CT scans after 4 and 8 weeks),Tumor response on CT ([11]; CT scans after 4 and 8 weeks)
CCN(CC)CCCCNc1ncc2cc(-c3cc(OC)cc(OC)c3)c(NC(=O)NC(C)(C)C)nc2n1 [PD173074],< 500 nM,resistant,induced apoptosis,but not in cells expressing FGFR1 alone,induced apoptosis,decreased,decreased,remained relatively stable,occurred robustly,occurred robustly,–,–,–,–,–,–,–
CCN1CCN(c2ccc(Nc3cc(N(C)C(=O)Nc4c(Cl)c(OC)cc(OC)c4Cl)ncn3)cc2)CC1 [BGJ398],–,–,–,–,–,–,–,–,–,–,repressed tumor growth,did not induce tumor shrinkage,led to regressions,10 months,improvement of symptoms,partial response (PR),tumor regression; also recorded: regression without cavitation of the tumor
